Experimental data published in ChEMBL document CHEMBL1121481, “Synthetic immunostimulants derived from the bacterial cell wall” (J Med Chem, 1980).

Assays:
Limulus [1] = experiment: Compound was evaluated by Limulus amoebocyte lysate test; negative at 100 ug/mL; type: functional, organism-based
Mus musculus [2] = experiment: Compound was tested for antibody titer in mice after injection with antigen in saline; compound is pyrogenic at 1 mg/kg; type: functional, organism-based; parameters: dose 1 mg/kg
Cavia porcellus [3] = experiment: Compound was tested for delayed hypersensitivity in guinea pig after administration in a water in oil emulsion; compound is pyrogenic at 1 mg/kg; type: functional, organism-based; parameters: dose 1 mg/kg
Oryctolagus cuniculus [4] = organism: Oryctolagus cuniculus; experiment: Compound was tested for pyrogenicity in the rabbit; pyrogenic at 100 ug/mL.; type: functional, organism-based
Mus musculus [5] = experiment: Compound was tested for [3H]- -thymidine uptake in mouse spleen cell cultures; compound is pyrogenic at 1 mg/kg; type: functional, organism-based; parameters: dose 1 mg/kg
Mus musculus [6] = experiment: Compound was tested for protective activity in mice infected with Klebsiella pneumoniae; compound is non pyrogenic at 1 mg/kg; type: functional, organism-based; parameters: dose 1 mg/kg
Limulus [7] = experiment: Compound was evaluated by Limulus amoebocyte lysate test; positive at 10 ug/mL; type: functional, organism-based
Mus musculus [8] = experiment: Compound was tested for protective activity in mice infected with Klebsiella pneumoniae; compound is pyrogenic at 1 mg/kg; type: functional, organism-based; parameters: dose 1 mg/kg
Mus musculus [9] = experiment: Compound was tested for antibody titer in mice after injection with antigen in saline;compound is pyrogenic at 1 mg/kg; type: functional, organism-based; parameters: dose 1 mg/kg
Cavia porcellus [10] = experiment: Compound was tested for delayed hypersensitivity in guinea pig after administration in a water in oil emulsion; non pyrogenic at 1 mg/kg; type: functional, organism-based; parameters: dose 1 mg/kg
Oryctolagus cuniculus [11] = organism: Oryctolagus cuniculus; experiment: Compound was tested for pyrogenicity in the rabbit; non pyrogenic at […]; type: functional, organism-based
Mus musculus [12] = experiment: Compound was tested for protective activity in mice infected with Klebsiella pneumoniae; non pyrogenic at 1 mg/kg; type: functional, organism-based; parameters: dose 1 mg/kg
Oryctolagus cuniculus [13] = organism: Oryctolagus cuniculus; experiment: Compound was tested for pyrogenicity in the rabbit; Delayed hypersensitivity; type: functional, organism-based
Limulus [14] = experiment: Compound was evaluated by Limulus amoebocyte lysate test; positive at 100 ug/mL; type: functional
Mus musculus [15] = experiment: Compound was tested for [3H]thymidine uptake in mouse spleen cell cultures; compound is pyrogenic at 1 mg/kg; type: functional, organism-based; parameters: dose 1 mg/kg
Limulus [16] = experiment: Compound was evaluated by Limulus amoebocyte lysate test; Positive at 100 ug/mL; type: functional, organism-based
Oryctolagus cuniculus [17] = experiment: Compound was tested for pyrogenicity in the rabbit; non pyrogenic at 1 mg/kg; type: functional, organism-based; parameters: dose 1 mg/kg
Cavia porcellus [18] = experiment: Compound was tested for delayed hypersensitivity in guinea pig after administration in a water in oil emulsion; compound is non pyrogenic at 1 mg/kg; type: functional, organism-based; parameters: dose 1 mg/kg

| Compound | LAL test (Limulus [1]) | Adjuvant effect (Mus musculus [2]) | Adjuvant effect (Cavia porcellus [3]) | Pyrogenic effect (Oryctolagus cuniculus [4]) | Mitogenic effect (Mus musculus [5]) | Anti-infectious effect (Mus musculus [8]) | Pyrogenic effect (Oryctolagus cuniculus [13]) | LAL test (Limulus [14]) | also measured |
| --- | --- | --- | --- | --- | --- | --- | --- | --- | --- |
| CC(=O)N[C@H]1[C@@H](O[C@@H](C)C(=O)N[C@@H](C)C(=O)N[C@H](CCC(=O)N[C@@H](CCCCN)C(=O)N[C@H](C)C(=O)O)C(N)=O)[C@H](O)[C@H](CO)O[C@H]1O | Not toxic | pyrogenic at 1 mg/kg | pyrogenic at 1 mg/kg | pyrogenic at 100 ug/mL | pyrogenic at 1 mg/kg | – | – | – | Anti-infectious effect (Mus musculus [6]): Not toxic |
| CC(=O)N[C@H]1C(OC(C)C(=O)NC(C)C(=O)NC(CCC(N)=O)C(=O)O)[C@H](O)C(CO)O[C@H]1O (stereo partly specified) | – | – | – | – | pyrogenic at 1 mg/kg | pyrogenic at 1 mg/kg | – | – | LAL test (Limulus [7]): positive at 10 ug/mL; Adjuvant effect (Mus musculus [9]): pyrogenic at 1 mg/kg; Adjuvant effect (Cavia porcellus [10]): Not toxic; Pyrogenic effect (Oryctolagus cuniculus [11]): Not toxic |
| COC(=O)C(CCC(N)=O)NC(=O)C(C)NC(=O)C(C)OC1[C@H](O)C(CO)O[C@@H](O)[C@H]1NC(C)=O (stereo partly specified) | – | pyrogenic at 1 mg/kg | pyrogenic at 1 mg/kg | – | pyrogenic at 1 mg/kg | – | Not toxic | positive at 100 ug/mL | Anti-infectious effect (Mus musculus [12]): Not toxic |
| COC(=O)CCC(NC(=O)C(C)NC(=O)C(C)OC1[C@H](O)C(CO)O[C@@H](O)[C@H]1NC(C)=O)C(=O)OC (stereo partly specified) | – | pyrogenic at 1 mg/kg | pyrogenic at 1 mg/kg | – | – | pyrogenic at 1 mg/kg | Not toxic | – | Mitogenic effect (Mus musculus [15]): pyrogenic at 1 mg/kg; LAL test (Limulus [16]): Positive at 100 ug/mL |
| CC(=O)N[C@H]1C(O)O[C@H](CO)[C@@H](O)[C@@H]1O[C@H](C)C(=O)N[C@@H](C)C(=O)N[C@H](CCC(=O)O)C(N)=O (stereo partly specified) | – | pyrogenic at 1 mg/kg | pyrogenic at 1 mg/kg | pyrogenic at 100 ug/mL | pyrogenic at 1 mg/kg | pyrogenic at 1 mg/kg | – | positive at 100 ug/mL | – |
| CC(=O)N[C@H]1C(OC(C)C(=O)NC(C)C(=O)NC(CCC(=O)O)C(=O)O)[C@H](O)C(CO)O[C@H]1O (stereo partly specified) | negative at 100 ug/mL | pyrogenic at 1 mg/kg | – | – | pyrogenic at 1 mg/kg | pyrogenic at 1 mg/kg | – | – | Pyrogenic effect (Oryctolagus cuniculus [17]): Not toxic; Adjuvant effect (Cavia porcellus [18]): Not toxic |
